biological target: T1, GAL4-DBD/RORγ-LBD (Homo sapiens, UniProt P51449); test: RORγt transactivation reporter assay (GAL4-DBD/RORγ-LBD, luciferase read out); type: cell-based; conditions: HEK293T cells, GAL4-UAS luciferase reporter, overnight (18-24 hours) incubation
T1 construct: expressed in transfected cells; host or cells: HEK293T
Procedure: RORγt Transactivation Reporter Assay Protocol: The inhibition of RORγt activity in cells was evaluated using a GAL4-UAS reporter system in HEK293T cells employing a luciferase read out. RORγt ligand binding domain (LBD) was cloned into the pFN26A (BIND) vector (Promega #[…]) containing yeast GAL4-DBD to form a RORγt LBD-GAL4 DBD fusion construct. This vector also contained a Renilla Luciferase reporter expressed under a SV40 promoter which was used as a control for transfection efficiency. A transcriptional reporter expression construct pGL4.35 (Promega #[…]) was used to monitor RORγt LBD-GAL4 activity. This construct contained nine repeats of GAL4 binding site/upstream activating sequence (UAS) controlling expression of a firefly luciferase reporter Luc2P. When transfected together in cells, the RORγ-LBD-DBD fusion protein drives expression of the luciferase reporter. For the assay, HEK293T cells were plated in a flat bottom 96 well plate at a density of 25,000 cells/well/100 ul of DMEM high glucose medium (Sigma D5648) containing 10% FBS and antibiotic. Cells were incubated overnight at 37 C/5% CO2. The next day, medium from the wells was removed and replaced with 30 ul of OptiMEM® (Invitrogen #31985070). 100 ng each of pBIND RORγ LBD-DBD and pGL4.35 reporter plasmids was transfected in HEK293T cells using Lipofectamine 2000 (Invitrogen #11668-019) where 10 ul of transfection complex was added to the each well. Control transfections were performed with an empty pF[…] vector and pGL4.35 vector. The transfected cells were incubated for 5 hours at 37 C/5% CO2. After incubation, 40 ul of DMEM high glucose medium without FBS, with antibiotic was added to each well. A 10 mM stock solution of test compound prepared in 100% DMSO was first diluted in DMSO and then in DMEM medium without FBS to give the required final compound concentration. Concentration of DMSO in the test compound solution was 0.4%. 20 ul of diluted compound solution was added to each well. Cells were incubated overnight (18-24 hours) at 37 C/5% CO2. The next day, luciferase assay was performed using the Dual Glo® Luciferase Assay System (Promega #E2940). Briefly, medium was removed from the wells and replaced with 40 ul 1× Passive Lysis Buffer (Promega #E1941). Plate was incubated at room temperature on a plate shaker at 1000 rpm for 40 min. After incubation, plate was centrifuged at 1000 rpm for 2 min. 20 ul of the lysate was transferred from each well to that of solid white half area 96 well plate (Costar #3693). Dual Glo® Reagent was thawed to room temperature and 20 ul was added to each well containing lysate. Plate was centrifuged at 1000 rpm/2 min and incubated at room temperature on a plate shaker at 600 rpm/25 min. Firefly luciferase signal was measured on a Tecan Safire2. After measurement, 20 ul of Dual Glo® Stop Glo® Reagent was added to each well. Plate was centrifuged at 1000 rpm/2 min and incubated at room temperature on a plate shaker at 600 rpm/25 min. Renilla luciferase signal was measured on Tecan Safire 2. IC50 values for test compounds were calculated from the normalized luciferase signal data using GraphPad Prism software.

T1 sequence (P51449 269-508 limits assumed): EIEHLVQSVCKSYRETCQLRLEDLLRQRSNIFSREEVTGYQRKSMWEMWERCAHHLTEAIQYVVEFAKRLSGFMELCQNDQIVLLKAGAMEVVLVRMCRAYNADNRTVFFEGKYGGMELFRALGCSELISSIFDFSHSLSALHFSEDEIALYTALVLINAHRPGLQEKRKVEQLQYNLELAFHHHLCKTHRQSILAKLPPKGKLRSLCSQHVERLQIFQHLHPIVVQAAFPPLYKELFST
T1 sequence (P04386 1-147 partner limits assumed): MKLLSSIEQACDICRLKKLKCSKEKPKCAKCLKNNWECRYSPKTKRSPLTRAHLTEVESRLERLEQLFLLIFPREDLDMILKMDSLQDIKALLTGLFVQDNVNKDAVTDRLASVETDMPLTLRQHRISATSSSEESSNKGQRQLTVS

Q: For O=C(O)c1ccc(-c2c(F)c(C(=O)c3c(Cl)cccc3Cl)n3ccccc23)c(F)c1 [Example B-4, 4-[3-(2,6-dichlorobenzoyl)-2-fluoro-indolizin-1-yl]-3-fluoro-benzoic acid], which IC50 is on record?
A: < 500 nM

Q: How did the IC50 turn out when CCOC(=O)c1ccc(-c2c(F)c(C(=O)c3c(Cl)ccc(F)c3Cl)n3ccccc23)cc1 [Example B-5, ethyl 4-[3-(2,6-dichloro-3-fluoro-benzoyl)-2-fluoro-indolizin-1-yl]benzoate] was run?
A: < 500 nM

Q: O=C(O)c1ccc(-c2c(F)c(C(=O)c3c(Cl)ccc(F)c3Cl)n3ccccc23)cc1 [Example B-6, 4-[3-(2,6-dichloro-3-fluoro-benzoyl)-2-fluoro-indolizin-1-yl]benzoic acid] was tested. Which IC50 did it give?
A: < 500 nM

Q: For CCOC(=O)c1ccc(-c2c(C)c(C(=O)c3c(Cl)cccc3Cl)n3ccccc23)c(F)c1 [Example C-1, ethyl 4-[3-(2,6-dichlorobenzoyl)-2-methyl-indolizin-1-yl]-3-fluoro-benzoate], which IC50 is on record?
A: < 500 nM

Q: Which IC50 does the source give for Cc1c(-c2ccc(C(=O)O)cc2F)c2ccccn2c1C(=O)c1c(Cl)cccc1Cl [Example C-2, 4-[3-(2,6-dichlorobenzoyl)-2-methyl-indolizin-1-yl]-3-fluoro-benzoic acid] here?
A: < 500 nM

Q: CCOC(=O)c1ccc(-c2c(C)c(C(=O)c3c(Cl)cccc3Cl)n3ccccc23)cc1 [Example C-3, ethyl 4-[3-(2,6-dichlorobenzoyl)-2-methyl-indolizin-1-yl]benzoate] was tested. Which IC50 did it give?
A: < 500 nM

Q: For Cc1c(-c2ccc(C(=O)O)cc2)c2ccccn2c1C(=O)c1c(Cl)cccc1Cl [Example C-4, 4-[3-(2,6-dichlorobenzoyl)-2-methyl-indolizin-1-yl]benzoic acid], which IC50 is on record?
A: < 500 nM

Q: Cc1c(-c2ccc(C(=O)O)cc2)c2ccccn2c1C(=O)c1c(Cl)ccnc1Cl [Example C-5, 4-[3-(2,4-dichloropyridine-3-carbonyl)-2-methyl-indolizin-1-yl]benzoic acid] was tested. Which IC50 did it give?
A: < 500 nM

Q: Cc1c(-c2ccc(C(=O)O)cc2F)c2ccccn2c1C(=O)c1c(Cl)cccc1C(F)(F)F [Example C-6, 4-[3-[2-chloro-6-(trifluoromethyl)benzoyl]-2-methyl-indolizin-1-yl]-3-fluoro-benzoic acid] was tested. Which IC50 did it give?
A: < 500 nM

Q: With Cc1c(-c2ccc(C(=O)O)cc2)c2ccccn2c1C(=O)c1c(Cl)cccc1C(F)(F)F [Example C-7, 4-[3-[2-chloro-6-(trifluoromethyl)benzoyl]-2-methyl-indolizin-1-yl]benzoic acid] as the molecule, how does the IC50 read?
A: < 500 nM

Q: For COC(=O)c1ccc(-c2c(C)c(C(=O)c3c(Cl)cccc3C(F)(F)F)n3ccccc23)c(F)c1 [Example C-8, methyl 4-[3-[2-chloro-6-(trifluoromethyl)benzoyl]-2-methyl-indolizin-1-yl]-3-fluoro-benzoate], which IC50 is on record?
A: < 500 nM

Q: Which IC50 does the source give for CCOC(=O)c1ccc(-c2c(C)c(C(=O)c3c(Cl)cccc3C(F)(F)F)n3ccccc23)cc1 [Example C-9, ethyl 4-[3-[2-chloro-6-(trifluoromethyl)benzoyl]-2-methyl-indolizin-1-yl]benzoate] here?
A: < 500 nM

Q: Which IC50 does the source give for CCOC(=O)c1ccc(-c2c(C)c(C(=O)c3c(Cl)ccnc3Cl)n3ccccc23)cc1 [Example C-10, ethyl 4-[3-(2,4-dichloropyridine-3-carbonyl)-2-methyl-indolizin-1-yl]benzoate] here?
A: < 5000 nM

Q: CN(C)C(=O)c1ccc2c(-c3ccc(C(=O)O)cc3)cc(C(=O)c3c(Cl)cccc3C(F)(F)F)n2c1 [Example D-1, 4-[3-[2-chloro-6-(trifluoromethyl)benzoyl]-6-(dimethylcarbamoyl)indolizin-1-yl]benzoic acid] was tested. Which IC50 did it give?
A: < 500 nM

Q: For CN(C)C(=O)c1ccc2c(-c3ccc(C(=O)O)cc3)cc(C(=O)c3c(Cl)cccc3Cl)n2c1 [Example D-2, 4-[3-(2,6-dichlorobenzoyl)-6-(dimethylcarbamoyl)indolizin-1-yl]benzoic acid], which IC50 is on record?
A: < 500 nM

Q: How did the IC50 turn out when O=C(O)c1ccc(-c2cc(C(=O)c3c(Cl)cccc3Cl)n3cc(C(=O)N4CCOCC4)ccc23)cc1 [Example D-3, 4-[3-(2,6-dichlorobenzoyl)-6-(morpholine-4-carbonyl)indolizin-1-yl]benzoic acid] was run?
A: < 1000 nM

Q: O=C(O)c1ccc(-c2cc(C(=O)c3c(Cl)cccc3Cl)n3cc(C(=O)N4CCCCC4)ccc23)cc1 [Example D-4, 4-[3-(2,6-dichlorobenzoyl)-6-(piperidine-1-carbonyl)indolizin-1-yl]benzoic acid] was tested. Which IC50 did it give?
A: < 1000 nM

Q: With O=C(O)c1ccc(-c2cc(C(=O)c3c(Cl)cccc3Cl)n3cc(C(=O)N4CCCC4)ccc23)cc1 [Example D-5, 4-[3-(2,6-dichlorobenzoyl)-6-(pyrrolidine-1-carbonyl)indolizin-1-yl]benzoic acid] as the molecule, how does the IC50 read?
A: < 500 nM

Q: How did the IC50 turn out when O=C(O)c1ccc(-c2cc(C(=O)c3c(Cl)cccc3Cl)n3cc(C(=O)N4CCC4)ccc23)cc1 [Example D-6, 4-[6-(azetidine-1-carbonyl)-3-(2,6-dichlorobenzoyl)indolizin-1-yl]benzoic acid] was run?
A: < 500 nM

Q: O=C(O)c1ccc(-c2cc(C(=O)c3c(Cl)cccc3Cl)n3cc(C(=O)NCCO)ccc23)cc1 [Example D-7, 4-[3-(2,6-dichlorobenzoyl)-6-(2-hydroxyethylcarbamoyl)indolizin-1-yl]benzoic acid] was tested. Which IC50 did it give?
A: > 5000 nM

Q: With COCCNC(=O)c1ccc2c(-c3ccc(C(=O)O)cc3)cc(C(=O)c3c(Cl)cccc3Cl)n2c1 [Example D-8, 4-[3-(2,6-dichlorobenzoyl)-6-(2-methoxyethylcarbamoyl)indolizin-1-yl]benzoic acid] as the molecule, how does the IC50 read?
A: > 5000 nM

Q: Which IC50 does the source give for O=C(O)c1ccc(-c2cc(C(=O)c3c(Cl)cccc3C(F)(F)F)n3cc(C(=O)N4CCC4)ccc23)cc1 [Example D-11, 4-[6-(azetidine-1-carbonyl)-3-[2-chloro-6-(trifluoromethyl)benzoyl]indolizin-1-yl]benzoic acid] here?
A: < 500 nM

Q: For COC1CN(C(=O)c2ccc3c(-c4ccc(C(=O)O)cc4)cc(C(=O)c4c(Cl)cccc4Cl)n3c2)C1 [Example D-14, 4-[3-(2,6-dichlorobenzoyl)-6-(3-methoxyazetidine-1-carbonyl)indolizin-1-yl]benzoic acid], which IC50 is on record?
A: < 500 nM

Q: Which IC50 does the source give for COC(=O)c1ccc(-c2cc(Oc3c(Cl)cccc3Cl)n3ccccc23)c(F)c1 [Example E-1, methyl 4-[3-(2,6-dichlorophenoxy)indolizin-1-yl]-3-fluoro-benzoate] here?
A: < 500 nM

Q: Which IC50 does the source give for O=C(O)c1ccc(-c2cc(Oc3c(Cl)cccc3Cl)n3ccccc23)c(F)c1 [Example E-2, 4-[3-(2,6-dichlorophenoxy)indolizin-1-yl]-3-fluoro-benzoic acid] here?
A: < 5000 nM

Q: How did the IC50 turn out when CNC(=O)c1ccc(-c2nc(C(=O)c3c(Cl)ccc(F)c3Cl)n3ccccc23)cc1 [Example F-1, 4-[3-(2,6-dichloro-3-fluoro-benzoyl)imidazo[1,5-a]pyridin-1-yl]-N-methyl-benzamide] was run?
A: > 5000 nM

Q: Which IC50 does the source give for O=C(c1c(Cl)ccc(F)c1Cl)c1cc(-c2ccc(C(=O)N3CCOCC3)cc2)c2ccccn12 [Example F-3, [4-[3-(2,6-dichloro-3-fluoro-benzoyl)indolizin-1-yl]phenyl]-morpholino-methanone] here?
A: > 5000 nM

Q: How did the IC50 turn out when CCS(=O)(=O)N1CC=C(c2cc(C(=O)c3c(Cl)cccc3Cl)n3ccccc23)CC1 [Example G-1, (2,6-dichlorophenyl)-[1-(1-ethylsulfonyl-3,6-dihydro-2H-pyridin-4-yl)indolizin-3-yl]methanone] was run?
A: > 5000 nM

Q: With CCS(=O)(=O)N1CCC=C(c2cc(C(=O)c3c(Cl)ccc(F)c3Cl)n3ccccc23)C1 [Example G-2, (2,6-dichloro-3-fluoro-phenyl)-[1-(1-ethylsulfonyl-3,6-dihydro-2H-pyridin-5-yl)indolizin-3-yl]methanone] as the molecule, how does the IC50 read?
A: > 5000 nM

Q: For O=C(O)c1ccc(-c2cc(C(=O)c3c(Cl)cccc3C(F)(F)F)n3c2CCCC3)cc1 [Example H-1, 4-[3-[2-chloro-6-(trifluoromethyl)benzoyl]-5,6,7,8-tetrahydroindolizin-1-yl]benzoic acid], which IC50 is on record?
A: < 500 nM

Q: Cc1c(-c2ccc(C(=O)O)cc2F)c2n(c1C(=O)c1c(Cl)cccc1Cl)CCCC2 [Example H-2, 4-[3-(2,6-dichlorobenzoyl)-2-methyl-5,6,7,8-tetrahydroindolizin-1-yl]-3-fluoro-benzoic acid] was tested. Which IC50 did it give?
A: < 500 nM
